Laboratory results taken from US8080552B2, “Pyrimidyl derivatives as protein kinase inhibitors” (Hoffmann-LA Roche Inc., priority 2006, dated 2011).

Experiments:
VEGF-induced HUVEC cells = assay: CellTiter-Glo assay in VEGF-induced HUVEC cells; assay type: cell-based; details: Homo sapiens; Table 2; VEGF-induced (20 ng/ml) HUVEC cells, 72 hours, cell viability (ATP luminescence); read-out: IC50 HCT 116
Protocol: CellTiter-Glo™ Assay in VEGF-Induced HUVEC Cells:
HUVEC-c (Human Umbilical Vein Endothelial Cells, from Promocell Cat-No. C-12200) cells were trypsinized, spinned down and plated in 384-well plates at 1500 cells per well in 60 μl endothelial basal medium (EBM-2 from Promocell, Cat-No. C-22211) with 0.5% Fetal Calf Serum (FCS, Sigma Cat-No. F4135 (FBS)). Cells were incubated overnight at 37° C., and the next day, test compounds (stock solution 140 μmol/l in medium with 4.2% dimethylsulfoxide (DMSO)) were added in 5 μl medium over a final concentration range of 10 μmol/l to 0.5 nmol/l and 0.3% DMSO. Compounds were tested in triplicates. After 2 hrs 5 μl VEGF (VEGF 165, R&D Systems, Cat-No. 293-VE-010, stock solution 280 ng/ml in medium) was added to a final concentration of 20 ng/ml. Cells were incubated for 72 hours at 37° C. in medium. Cell number was quantitated using CellTiter-Glo™ Luminescent Cell Viability Assay (from Promega) according to the instructions of the supplier. This assay measures the number of viable cells per well by measurement of luminescent signal based on amount of cellular ATP. IC50 are determined using a non-linear curve fit (XLfit software (ID Business Solution Ltd., Guilford, Surrey, UK)) (see also CellTiter-Glo™ assay in HCT 116 cells above).

HCT 116 cells = assay: CellTiter-Glo assay in HCT 116 cells; assay type: cell-based; details: 120 h; HCT 116 human colon carcinoma cells, 5 days incubation, cell viability (ATP luminescence)
Description: CellTiter-Glo™ Assay in HCT 116 Cells:
The CellTiter-Glo™ Luminescent Cell Viability Assay (Promega) is a homogeneous method of determining the number of viable cells in culture based on quantitation of the ATP present, which signals the presence of metabolically active cells.
HCT 116 cells (human colon carcinoma, ATCC-No. CCl-247) were cultivated in RPMI 1640 medium with GlutaMAX™ I (Invitrogen, Cat-No. 61870-010), 5% Fetal Calf Serum (FCS, Sigma Cat-No. F4135 (FBS)); 100 Units/ml penicillin/100 μg/ml streptomycin (=Pen/Strep from Invitrogen Cat. No. 15140). For the assay the cells were seeded in 384 well plates, 1000 cells per well, in the same medium. The next day the test compounds were added in various concentrations ranging from 30 μM to 0.0015 μM (10 concentrations, 1:3 diluted). After 5 days the CellTiter-Glo™ assay was done according to the instructions of the manufacturer (CellTiter-Glo™ Luminescent Cell Viability Assay, from Promega). In brief: the cell-plate was equilibrated to room temperature for approximately 30 minutes and than the CellTiter-Glo™ reagent was added. The contents were carefully mixed for 15 minutes to induce cell lysis. After 45 minutes the luminescent signal was measured in Victor 2, (scanning multiwell spectrophotometer, Wallac).
• Medium: RPMI 1640 with GlutaMAX™ I (Invitrogen, Cat-Nr. 61870), 5% FCS (Sigma Cat.-No. F4135), Pen/Strep (Invitrogen, Cat No. 15140). • HCT116 (ATCC-No. CCl-247): 1000 cells in 60 μl per well of 384 well plate (Greiner 781098, μClear-plate white) • After seeding incubate plates 24 h at 37° C., 5% CO2 2nd. Day: Induction (Treatment with Compounds, 10 Concentrations):
In order to achieve a final concentration of 30 μM as highest concentration 3.5 μl of 10 mM compound stock solution were added directly to 163 μl media. Then step e) of the dilution procedure described below, was followed.

Row | SMILES | IC50 (VEGF-induced HUVEC cells) [nM] | IC50 (HCT 116 cells) [nM]
1 | COc1ccc(C(F)(F)F)cc1NC(=O)Nc1ccc(Oc2ccnc(NCCCO)n2)cc1 [Example 1, 1-{4-[2-(3-Hydroxy-propylamino)-pyrimidin-4-yloxy]-phenyl}-3-(2-methoxy-5-trifluoromethyl-phenyl)-urea] | 67 | 
2 | O=C(Nc1ccc(Oc2ccnc(NCCCO)n2)cc1)Nc1cccc(OC(F)(F)F)c1 [Example 2, 1-{4-[2-(3-Hydroxy-propylamino)-pyrimidin-4-yloxy]-phenyl}-3-(3-trifluoromethoxy-phenyl)-urea] | 5 to 750 | 670
3 | O=C(Nc1ccc(Oc2ccnc(NCCCO)n2)cc1)Nc1ccc(OC(F)(F)F)cc1 [Example 3, 1-{4-[2-(3-Hydroxy-propylamino)-pyrimidin-4-yloxy]-phenyl}-3-(4-trifluoromethoxy-phenyl)-urea] | 5 to 750 | 300 to 10000
4 | CC(C)(C)c1cccc(NC(=O)Nc2ccc(Oc3ccnc(NCCCO)n3)cc2)c1 [Example 4, 1-(3-tert-Butyl-phenyl)-3-{4-[2-(3-Hydroxy-propylamino)-pyrimidin-4-yloxy]-phenyl}-urea] | 5 to 750 | 300 to 10000
5 | CC(C)(C)c1ccc(NC(=O)Nc2ccc(Oc3ccnc(NCCCO)n3)cc2)cc1 [Example 5, 1-(4-tert-Butyl-phenyl)-3-{4-[2-(3-Hydroxy-propylamino)-pyrimidin-4-yloxy]-phenyl}-urea] | 5 to 750 | 
6 | O=C(Nc1ccc(Cl)cc1)Nc1ccc(Oc2ccnc(NCCCO)n2)cc1 [Example 6, 1-(4-Chloro-phenyl)-3-{4-[2-(3-hydroxy-propylamino)-pyrimidin-4-yloxy]-phenyl}-urea] | 257 | 300 to 10000
7 | O=C(Nc1ccc(Oc2ccnc(NCCCO)n2)cc1)Nc1cccc(C(F)(F)F)c1 [Example 7, 1-{4-[2-(3-Hydroxy-propylamino)-pyrimidin-4-yloxy]-phenyl}-3-(3-trifluoromethyl-phenyl)-urea] | 5 to 750 | 300 to 10000
8 | O=C(Nc1ccc(Oc2ccnc(NCCCO)n2)cc1)Nc1cc(C(F)(F)F)ccc1F [Example 8, 1-(2-Fluoro-5-trifluoromethyl-phenyl)-3-{4-[2-(3-Hydroxy-propylamino)-pyrimidin-4-yloxy]-phenyl}-urea] | 5 to 750 | 300 to 10000
9 | O=C(Nc1ccc(Oc2ccnc(NCCCO)n2)cc1)Nc1ccc(Cl)c(C(F)(F)F)c1 [Example 9, 1-(4-Chloro-3-trifluoromethylphenyl)-3-{4-[2-(3-Hydroxy-propylamino)-pyrimidin-4-yloxy]-phenyl}-urea] | 5 to 750 | 3990
10 | O=C(Nc1ccc(Oc2ccnc(NCCCCO)n2)cc1)Nc1ccc(Cl)c(C(F)(F)F)c1 [Example 10, 1-(4-Chloro-3-trifluoromethylphenyl)-3-{4-[2-(4-hydroxy-butylamino)-pyrimidin-4-yloxy]-phenyl}-urea] | 5 to 750 | 300 to 10000
11 | O=C(Nc1ccc(Oc2ccnc(NCCO)n2)cc1)Nc1ccc(Cl)c(C(F)(F)F)c1 [Example 11, 1-(4-Chloro-3-trifluoromethylphenyl)-3-{4-[2-(2-hydroxy-ethylamino)-pyrimidin-4-yloxy]-phenyl}-urea] |  | 300 to 10000
12 | CC(O)CCNc1nccc(Oc2ccc(NC(=O)Nc3ccc(Cl)c(C(F)(F)F)c3)cc2)n1 (stereo not drawn) [Example 12, 1-(4-Chloro-3-trifluoromethylphenyl)-3-{4-[2-(3-hydroxy-butylamino)-pyrimidin-4-yloxy]-phenyl}-urea] | 5 to 750 | 300 to 10000
13 | O=C(Nc1ccccc1)Nc1ccc(Oc2ccnc(NCCCO)n2)cc1 [Example 13, 1-{4-[2-(3-Hydroxy-propylamino)-pyrimidin-4-yloxy]-phenyl}-3-phenyl-urea] | 5 to 750 | 300 to 10000
14 | C[Si](C)(C)c1ccc(NC(=O)Nc2ccc(Oc3ccnc(NCCCO)n3)cc2)cc1 [Example 14, 1-{4-[2-(3-Hydroxy-propylamino)-pyrimidin-4-yloxy]-phenyl}-3-(4-trimethylsilanyl-phenyl)-urea] | 5 to 750 | 1520
15 | O=C(Nc1ccc(Oc2ccnc(NCCCO)n2)c(Cl)c1)Nc1ccc(Cl)c(C(F)(F)F)c1 [Example 15, 1-(4-Chloro-3-trifluoromethyl-phenyl)-3-{3-chloro-4-[2-(3-hydroxy-propylamino)-pyrimidin-4-yloxy]-phenyl}-urea] | 5 to 750 | 
16 | O=C(Nc1ccc(Oc2ccnc(NCCCO)n2)c(F)c1)Nc1ccc(Cl)c(C(F)(F)F)c1 [Example 17, 1-(4-Chloro-3-trifluoromethyl-phenyl)-3-{3-fluoro-4-[2-(3-hydroxy-propylamino)-pyrimidin-4-yloxy]-phenyl}-urea] | 5 to 750 | 300 to 10000
17 | O=C(Nc1ccc(Cl)c(C(F)(F)F)c1)Nc1ccc(Oc2ccnc(NCCCO)n2)cc1F [Example 18, 1-(4-Chloro-3-trifluoromethyl-phenyl)-3-{2-fluoro-4-[2-(3-hydroxy-propylamino)-pyrimidin-4-yloxy]-phenyl}-urea] | 5 to 750 | 300 to 10000
18 | O=C(Nc1ccc(Oc2ccnc(NCCCO)n2)cc1)Nc1cc(C(F)(F)F)ccc1Cl [Example 19, 1-(2-Chloro-5-trifluoromethyl-phenyl)-3-{4-[2-(3-hydroxy-propylamino)-pyrimidin-4-yloxy]-phenyl}-urea] | 5 to 750 | 
19 | O=C(Nc1ccc(Oc2cc(NCCO)ncn2)cc1)Nc1cccc(C(F)(F)F)c1 [Example 20, 1-{4-[6-(2-Hydroxy-ethylamino)-pyrimidin-4-yloxy]-phenyl}-3-(3-trifluoromethyl-phenyl)-urea] | 5 to 750 | 300 to 10000
20 | O=C(Nc1ccc(Oc2cc(NCCCO)ncn2)cc1)Nc1cccc(C(F)(F)F)c1 [Example 21, 1-{4-[6-(3-Hydroxy-propylamino)-pyrimidin-4-yloxy]-phenyl}-3-(3-trifluoromethyl-phenyl)-urea] | 5 to 750 | 300 to 10000
21 | O=C(Nc1ccc(Oc2cc(NCCO)ncn2)cc1)Nc1ccc(Cl)c(C(F)(F)F)c1 [Example 22, 1-(4-Chloro-3-trifluoromethyl-phenyl)-3-{4-[6-(2-hydroxy-ethylamino)-pyrimidin-4-yloxy]-phenyl}-urea] | 5 to 750 | 300 to 10000
22 | O=C(Nc1ccc(Oc2cc(NCCCO)ncn2)cc1)Nc1ccc(Cl)c(C(F)(F)F)c1 [Example 23, 1-(4-Chloro-3-trifluoromethyl-phenyl)-3-{4-[6-(3-hydroxy-propylamino)-pyrimidin-4-yloxy]-phenyl}-urea] | 5 to 750 | 
23 | CC(C)(C#N)c1ccc(NC(=O)Nc2ccc(Oc3ccnc(NCCCO)n3)cc2)cc1 [Example 24, 1-[4-(Cyano-dimethyl-methyl)-phenyl]-3-{4-[2-(3-Hydroxy-propylamino)-pyrimidin-4-yloxy]-phenyl}-urea] |  | 300 to 10000
24 | CC(C)(C#N)c1cccc(NC(=O)Nc2ccc(Oc3ccnc(NCCCO)n3)cc2)c1 [Example 25, 1-[3-(Cyano-dimethyl-methyl)-phenyl]-3-{4-[2-(3-hydroxy-propylamino)-pyrimidin-4-yloxy]-phenyl}-urea] | 5 to 750 | 300 to 10000
25 | CC(C#N)c1cccc(NC(=O)Nc2ccc(Oc3ccnc(NCCCO)n3)cc2)c1 (stereo not drawn) [Example 26, 1-[3-(Cyano-methyl-methyl)-phenyl]-3-{4-[2-(3-hydroxy-propylamino)-pyrimidin-4-yloxy]-phenyl}-urea] | 5 to 750 | 300 to 10000
26 | O=C(Nc1ccc(Oc2ccnc(NCCCO)n2)cc1)Nc1ccc2c(c1)OC(F)(F)O2 [Example 28, 1-(2,2-Difluoro-benzo[1,3]dioxol-5-yl)-3-{4-[2-(3-hydroxy-propylamino)-pyrimidin-4-yloxy]-phenyl}-urea] | 82 | 300 to 10000
